The text below walks through data of patent publication US20140371165A1, “Identification of NSC23925 Isomers to Reverse Multidrug Resistance in Human Cancers” (priority 2012, published 2014).

Data set [1] has as its system SKOV-3TR. As to the kind of experiment: MTT cytotoxicity assay and reversal of MDR in SKOV-3TR. The conditions noted are these: for potency of isomer on reversing drug resistance: with paclitaxel, MTT 6 days post-treatment; for IC50: Homo sapiens, SKOV3TR, 144 h, without NSC23925b, MTT, 6 days, read-out: IC50 of chemotherapy drug alone. The data set is classed as cell-based, human. The text has this:
(§1) A panel of parental cancer cell line and their daughter resistant cell lines, displaying MDR phenotype were used in this study. Human ovarian cancer cell line SKOV-3, breast cancer cell line MCF-7 and colon cancer cell line SW480, the osteosarcoma cell line U-2OS, KHOS, uterine sarcoma cell line MESSA and its doxorubicin selected drug resistant cell line MESSA/Dx5, non-small cell lung cancer cell line H-69 and its doxorubicin selected drug resistant cell line H-69AR (overexpress MRP1) were obtained from the ATCC (Rockville, Md.). Dr. Efstathios Gonos (Institute of Biological Research & Biotechnology, Athens, Greece) provided the doxorubicin resistant U-2OS R2 (referred in the text below as U-2OSDR), KHOS R2 cell lines. Dr. Erasmus Schneider (Wadsworth Center, Albany) provided the mitoxantrane resistant breast cancer MCF-7/MX (overexpress BCRP) cell line. All the cell lines were cultured in RPMI 1640 (Invitrogen, Carlsbad, Calif.) supplemented with 10% fetal bovine serum, 100-units/ml penicillin and 100 μg/ml streptomycin (Invitrogen). Cells were incubated at 37° C. in 5% CO2-95% air atmosphere and passaged when near confluent monolayers were achieved using 2% trypsin-EDTA solution. […] The fresh chemotherapy drugs were obtained from the pharmacy at the Massachusetts General Hospital and stored at −20° C.
(§2) To evaluate for reversal of Pgp-mediated MDR, SKOV-3TR, MCF-7adr and SW480TR cell lines were seeded into 96-well tissue culture plate at 2,000 cells per well with varying concentrations of chemotherapy drugs and NSC23925b for 6 days. Cell proliferation IC50 (concentration required for 50% inhibition) and MDR reversal IC50 were determined from dose-response curves carried out in triplicate in 96-well plate. Fold of reverse resistance for individual drugs were defined as the IC50 of MDR cells without NSC23925b treatment divided by the IC50 of MDR cells treated with NSC23925b. […] Drug cytotoxicity was assessed in vitro using the MTT assay as previously described. […] Response curves were fitted with use of GraphPad PRISM 4 software (GraphPad Software).
Structure and activity relationship (SAR) of the four NSC23925 isomers for reversing MDR were evaluated in human ovarian cancer MDR cell line SKOV-3TR by MTT assay (FIGS. 1A-D). Cells were treated with the paclitaxel and NSC23925 diastereomers NSC23925a (FIG. 1A), NSC23925b (FIG. 1B), NSC23925c (FIG. 1C) and NSC23925d (FIG. 1D) in RPMI1640 complete media at the indicated concentrations. The relative sensitivity of each line to paclitaxel was determined by MTT analysis 6 days post-treatment.

Data set [2] is described as follows: Solubility in organic solvents. In kind it is physicochemical. The conditions noted are these: volume of methanol for 5 milligram.
Data set [3] deals with MCF-7adr. As to the kind of experiment: MTT cytotoxicity assay and reversal of MDR in MCF-7adr. The data set is classed as cell-based, human. The conditions noted are these: Homo sapiens, NCI/ADR-RES, 144 h, without NSC23925b, MTT, 6 days, read-out: IC50 of chemotherapy drug alone.
Excerpt: as §1, §2
(§3) MCF-7adr and SW480TR cells were treated with paclitaxel (FIGS. 2A-B), doxorubicin (FIGS. 2C-D) or mitoxantrane (FIGS. 2E-F) and NSC23925b in RPMI1640 complete media at the indicated concentrations. The relative sensitivity of each line to the indicated drugs was determined by MTT analysis 6 days post-treatment.
(In general: Tetrazolium assays rely on reduction of a dye to a coloured formazan, in cell work by metabolically active cells.)

Data set [4] has as its system SW480TR. In words: MTT cytotoxicity assay and reversal of MDR in SW480TR. The conditions noted are these: Homo sapiens, 144 h, without NSC23925b, MTT, 6 days, read-out: IC50 of chemotherapy drug alone. The data set is classed as cell-based, human.
Excerpt: as §1, §2, §3

In data set [5] the test system is SKOV-3TR xenograft tumors. In words: SKOV-3TR xenograft tumor growth in nude mice. The conditions noted are these: alone; i.p. twice a week for two weeks; paclitaxel 20 mg/kg or NSC23925b 40 mg/kg. The procedure:
The Crl:SHO-Prkdc^SCIDHr^hr nude female mice at approximately 3-4 weeks of age were purchased from The Charles River Laboratories (Ann Arbor, Mich.). Animal studies were carried out with protocols approved by the Massachusetts General Hospital Subcommittee on Research Animal Care (SRAC). To determine the effect of NSC23925b on paclitaxel sensitivity in xenograft model, 5×10^6 SKOV-3TR cells were injected subcutaneously with matrigel (BD Biosciences, San Jose, Calif.) on day one. Two weeks after injection, the mice were divided into four groups to start the treatments. Group one was received intraperitoneal (i.p) injection with normal saline, group two with paclitaxel (20 mg/kg), group three with NSC23925b (40 mg/kg). […] All four groups were treated twice a week for two weeks. The health of the mice and evidence of tumor growth were examined daily. Tumors were measured twice a week with a digital caliper. Tumor volume (mm^3) was calculated as (W^2×L)/2, where W is width and L is length. The curve of tumor growth was drawn according to tumor volume by using of GraphPad PRISM 4 software.
To further evaluate the effects of NSC23925b and paclitaxel combination therapy on the tumor growth of resistant cells, the growth of xenograft tumors were examined. A well-characterized ovarian cancer MDR cell line SKOV-3TR was chosen for in vivo studies. […] Tumors were measured twice a week with a digital caliper. Tumor volume (mm^3) was calculated as (W^2×L)/2, where W is width and L is length (FIG. 5A). Representative images of dissected tumor tissues from treated nude mice.

Turning to `COc1ccc(-c2cc([C@@H](O)[C@H]3CCCCN3)c3ccccc3n2)cc1.Cl` (single isomer, unassigned) [NSC23925c, (2-(4-methoxyphenyl)quinolin-4-yl)(piperidin-2-yl)methanol hydrochloride], in data set [1], the “potency of isomer on reversing drug resistance” value (“potency of isomer” for short) is listed as “modest but lesser activity”. Also, the “5 milligram solubility in methanol” value in data set [2] amounted to 150 µL.

Regarding `COc1ccc(-c2cc([C@H](O)[C@@H]3CCCCN3)c3ccccc3n2)cc1.Cl` (single isomer, unassigned) [NSC23925d, (2-(4-methoxyphenyl)quinolin-4-yl)(piperidin-2-yl)methanol hydrochloride], the “potency of isomer” value in data set [1] is recorded as “modest but lesser activity”. For the same compound, in data set [2], the “5 milligram solubility in methanol” value was 150 µL.

Consider `COc1cccc2c1C(=O)c1c(O)c3c(c(O)c1C2=O)C[C@@](O)(C(=O)CO)C[C@@H]3O[C@H]1C[C@H](N)[C@H](O)[C@H](C)O1` [Doxorubicin, reference compound], for which the IC50 – broadly, the point on the concentration scale where inhibition reaches its midpoint – stood at 3.8 ± 0.12 µM in data set [3], 38.5 ± 2.6 µM in data set [1] and 0.84 ± 0.16 µM in data set [4].

Consider `O=C1c2c(O)ccc(O)c2C(=O)c2c(NCCNCCO)ccc(NCCNCCO)c21` [Mitoxantrane, reference compound], for which the IC50 came to 0.32 ± 0.06 µM in data set [3], 0.46 ± 0.06 µM in data set [1] and 0.27 ± 0.03 µM in data set [4].

`COc1ccc(-c2cc([C@@H](O)[C@@H]3CCCCN3)c3ccccc3n2)cc1.Cl` [NSC23925a, (2-(4-methoxyphenyl)quinolin-4-yl)(piperidin-2-yl)methanol hydrochloride]: in data set [1], the “potency of isomer” value was “least potency”. Moreover, the “5 milligram solubility in methanol” value in data set [2] turned out to be 650 µL.

As to `CC(=O)O[C@H]1C(=O)[C@@]2(C)[C@H]([C@H](OC(=O)c3ccccc3)[C@]3(O)C[C@H](OC(=O)[C@H](O)[C@@H](NC(=O)c4ccccc4)c4ccccc4)C(C)=C1C3(C)C)[C@]1(OC(C)=O)CO[C@@H]1C[C@@H]2O` [Paclitaxel, reference compound], the IC50 amounted to 0.62 ± 0.12 µM in data set [3], 0.57 ± 0.03 µM in data set [1] and 0.12 ± 0.08 µM in data set [4]. Also, the “effect on paclitaxel resistant tumor cell growth, single agent” value in data set [5] is given as “no significant effects”.
